Reference: US20170333390A1, “PHYTOCHEMICAL COMPOSITIONS INCLUDING SESAMIN FOR ANTI-INFLAMMATORY, ANTI-CYTOKINE STORM, AND OTHER USES” (CHIANG MAI UNIVERSITY, priority 2009, published 2017)

System: cartilage tissue cultures exposed to IL-1 (ECM degradation, HA release)
Test: HA release from IL-1 exposed cartilage tissue cultures (ELISA)
Assay type: cell-based
Settings: relative to control culture, sulfate
Protocol: Experiments were conducted to evaluate the anti-inflammatory effects of combinations of particular phytochemical compositions provided by the present disclosure with known substances, compositions, or drugs that are associated with an anti-inflammatory effect and/or an anti-degenerative or tissue integrity preservation effect in connective tissue. In the context of the present disclosure, the term “connective tissue” encompasses connective tissue proper (e.g., dense or fibrous connective tissue), as well as specialized connective tissue such as cartilage or bone. More specifically, experiments were conducted to evaluate the anti-inflammatory, anti-degenerative, and/or structural preservation effects of a combination of particular phytochemical compositions provided by the present disclosure with glucosamine sulfate. In addition, the experiments compared the anti-inflammatory/anti-degenerative effects of the combination of particular sesamin or sesamin-based phytochemical compositions provided by the present disclosure plus glucosamine sulfate, versus the anti-inflammatory/anti-degenerative effects of glucosamine sulfate alone.
Hyaluronic acid (HA) is an important component of the extracellular matrix (ECM), as well as a major component of synovial fluid. HA is present in articular cartilage, and contributes to cartilage resilience. It is known that IL-1 stimulates the synthesis and activity of matrix metalloproteinases and other enzymes that are associated with cartilage degradation as well as rheumatoid arthritis and osteoarthritis. A set of experimental cartilage tissue cultures were prepared using cartilage tissue samples containing HA within their ECMs. As further detailed below, the experimental cartilage tissue cultures selectively incorporated glucosamine sulfate alone; sesamin alone; or a combination of glucosamine sulfate and sesamin. Additionally, a control cartilage tissue culture remained unexposed to either of sesamin or glucosamine sulfate.
ECM degradation was induced in the experimental and control cartilage tissue cultures by exposing the cultures to IL-1. A measure or estimate of a cartilage tissue anti-degenerative effect was defined in accordance with an amount of HA that an experimental cartilage tissue culture released into the tissue culture medium relative to a reference or baseline amount of HA that was released into the tissue culture medium by the control cartilage tissue culture. More particularly, a percentage reduction in the amount of HA released into the tissue culture medium by a given experimental cartilage tissue culture relative to the amount of HA released into the tissue culture medium by the control cartilage tissue culture, indicated below as “Percentage (%) HA Reduction”, conveys or indicates the magnitude of an anti-degenerative or structural preservation effect provided by the experimental cartilage tissue culture under consideration. A corresponding measure or estimate of percentage (%) HA retention by cartilage tissue can also be defined based upon the experimental results. The amount or level of HA present in a given tissue culture medium was detected using ELISA, in a manner that can be understood by one of ordinary skill in the art.

N[C@H]1C(O)O[C@H](CO)[C@@H](O)[C@@H]1O.O=S(=O)(O)O (stereo partly drawn) [Glucosamine Sulfate, glucosamine sulfate, reference compound]
Percentage (%) HA Reduction (glucosamine sulfate 20 mM (9 mg/ml), listed as glucosamine sulfate): approximately 3%
Percentage (%) HA Reduction (glucosamine sulfate 20 mM (9 mg/ml)): 3%
Percentage (%) HA Reduction (glucosamine sulfate 40 mM (18 mg/ml), listed as glucosamine sulfate): approximately 28%
Percentage (%) HA Reduction (glucosamine sulfate 40 mM (18 mg/ml)): 28%
Percentage (%) HA Reduction (glucosamine sulfate 80 mM (36 mg/ml), listed as glucosamine sulfate): approximately 43%
Percentage (%) HA Reduction (glucosamine sulfate 80 mM (36 mg/ml)): 43%
